Measured values: ChEMBL document CHEMBL3351907, “Design, synthesis and biological evaluation of benzyl 2-(1H-imidazole-1-yl) pyrimidine analogues as selective and potent Raf inhibitors” (Bioorg Med Chem Lett, 2014)
Active and inactive are the calls of the source. No cut-off for these calls is given here.

How the values were obtained:
[1] = (§1) Cytotoxicity against human U937 cells assessed as cell viability after 24 hrs by MTT assay; format: functional; conditions: U-937, 24 h
[2] = (§2) Cytotoxicity against human A375P cells assessed as cell viability after 24 hrs by MTT assay; format: functional
A375P = assay: as §2; format: functional
U-937 = assay: as §1; format: functional
[3] = biological target: Serine/threonine-protein kinase mTOR (Homo sapiens) (UniProt P42345); assay: Inhibition of mTOR/FRAP1 (unknown origin) at 10 uM
[4] = biological target: Macrophage colony-stimulating factor 1 receptor (Homo sapiens) (UniProt P07333); assay: Inhibition of FMS (unknown origin) at 10 uM
[5] = biological target: T1, RAF proto-oncogene serine/threonine-protein kinase (Homo sapiens, UniProt P04049); assay: Inhibition of cRAF1 (unknown origin) at 10 uM
[6] = biological target: Serine/threonine-protein kinase PLK1 (Homo sapiens) (UniProt P53350); assay: Inhibition of PLK1 (unknown origin) at 10 uM
[7] = biological target: Aurora kinase A (Homo sapiens) (UniProt O14965); assay: Inhibition of Aurora A (unknown origin) at 10 uM
[8] = biological target: Mitogen-activated protein kinase 3 (Homo sapiens) (UniProt P27361); assay: Inhibition of ERK1 (unknown origin) at 10 uM
[9] = biological target: Hepatocyte growth factor receptor (Homo sapiens) (UniProt P08581); assay: Inhibition of c-MET (unknown origin) at 10 uM
[10] = biological target: RAC-alpha serine/threonine-protein kinase (Homo sapiens) (UniProt P31749); assay: Inhibition of AKT1 (unknown origin) at 10 uM
[11] = biological target: Proto-oncogene tyrosine-protein kinase Src (Homo sapiens) (UniProt P12931); assay: Inhibition of c-Src (unknown origin) at 10 uM
[12] = biological target: T2, Serine/threonine-protein kinase B-raf (Homo sapiens, UniProt P15056); assay: Inhibition of BRAF (unknown origin)
[13] = biological target: Tyrosine-protein kinase Lck (Homo sapiens) (UniProt P06239); assay: Inhibition of LCK (unknown origin) at 10 uM
[14] = biological target: Serine/threonine-protein kinase B-raf (Homo sapiens, UniProt P15056, V600E); assay: Inhibition of BRAF V599E mutant (unknown origin)
[15] = biological target: Tyrosine-protein kinase JAK3 (Homo sapiens) (UniProt P52333); assay: Inhibition of JAK3 (unknown origin) at 10 uM
[16] = biological target: Dual specificity mitogen-activated protein kinase kinase 1 (Homo sapiens) (UniProt Q02750); assay: Inhibition of MEK1 (unknown origin) at 10 uM
[17] = biological target: Fibroblast growth factor receptor 3 (Homo sapiens) (UniProt P22607); assay: Inhibition of FGFR3 (unknown origin) at 10 uM
[18] = biological target: Insulin-like growth factor 1 receptor (Homo sapiens) (UniProt P08069); assay: Inhibition of IGF1R (unknown origin) at 10 uM
[19] = biological target: Receptor-type tyrosine-protein kinase FLT3 (Homo sapiens) (UniProt P36888); assay: Inhibition of FLT3 (unknown origin) at 10 uM
[20] = biological target: Mitogen-activated protein kinase 10 (Homo sapiens) (UniProt P53779); assay: Inhibition of JNK3 (unknown origin) at 10 uM
[21] = biological target: Proto-oncogene tyrosine-protein kinase ROS (Homo sapiens) (UniProt P08922); assay: Inhibition of ROS/ROS1 (unknown origin) at 10 uM
[22] = biological target: T1, RAF proto-oncogene serine/threonine-protein kinase; assay: Inhibition of RAF1 (unknown origin) at 10 uM
[23] = biological target: T2, Serine/threonine-protein kinase B-raf; conditions: 10 uM
Description: Inhibition of BRAF (unknown origin) at 10 uM

[24] = biological target: Tyrosine-protein kinase BTK (Homo sapiens) (UniProt Q06187); assay: Inhibition of BTK (unknown origin) at 10 uM
[25] = biological target: Tyrosine-protein kinase SYK (Homo sapiens) (UniProt P43405); assay: Inhibition of SYK (unknown origin) at 10 uM
[26] = biological target: Glycogen synthase kinase-3 beta (Homo sapiens) (UniProt P49841); assay: Inhibition of GSK3b (unknown origin) at 10 uM
[27] = biological target: Focal adhesion kinase 1 (Homo sapiens) (UniProt Q05397); assay: Inhibition of FAK/PTK2 (unknown origin) at 10 uM
[28] = biological target: Epidermal growth factor receptor (Homo sapiens) (UniProt P00533); assay: Inhibition of EGFR (unknown origin) at 10 uM
[29] = biological target: Mast/stem cell growth factor receptor Kit (Homo sapiens) (UniProt P10721); assay: Inhibition of c-Kit (unknown origin) at 10 uM
[30] = biological target: T3, Mitogen-activated protein kinase 14 (Homo sapiens, UniProt Q16539); assay: Inhibition of P38a/MAPK14 (unknown origin)
[31] = biological target: Cyclin-dependent kinase 1/cyclin B1 (Homo sapiens) (UniProt P06493+P14635); assay: Inhibition of CDK1/cyclin B (unknown origin) at 10 uM; format: protein-complex assay
Homo sapiens = organism: Homo sapiens; assay: Inhibition of PKA (unknown origin) at 10 uM
[32] = biological target: ALK tyrosine kinase receptor (Homo sapiens) (UniProt Q9UM73); assay: Inhibition of ALK (unknown origin) at 10 uM
[33] = tested on: Serine/threonine-protein kinase B-raf (Homo sapiens), P15056 [V600E]; conditions: 10 uM
Description: Inhibition of BRAF V599E mutant (unknown origin) at 10 uM

[34] = biological target: Tyrosine-protein kinase ABL1 (Homo sapiens) (UniProt P00519); assay: Inhibition of ABL1 (unknown origin) at 10 uM
[35] = biological target: T3, Mitogen-activated protein kinase 14; assay: Inhibition of P38a/MAPK14 (unknown origin) at 10 uM
[36] = biological target: Macrophage-stimulating protein receptor (Homo sapiens) (UniProt Q04912); assay: Inhibition of RON/MST1R (unknown origin) at 10 uM
[37] = biological target: Tyrosine-protein kinase Lyn (Homo sapiens) (UniProt P07948); assay: Inhibition of LYN (unknown origin) at 10 uM

T1 sequence (P04049 whole entry): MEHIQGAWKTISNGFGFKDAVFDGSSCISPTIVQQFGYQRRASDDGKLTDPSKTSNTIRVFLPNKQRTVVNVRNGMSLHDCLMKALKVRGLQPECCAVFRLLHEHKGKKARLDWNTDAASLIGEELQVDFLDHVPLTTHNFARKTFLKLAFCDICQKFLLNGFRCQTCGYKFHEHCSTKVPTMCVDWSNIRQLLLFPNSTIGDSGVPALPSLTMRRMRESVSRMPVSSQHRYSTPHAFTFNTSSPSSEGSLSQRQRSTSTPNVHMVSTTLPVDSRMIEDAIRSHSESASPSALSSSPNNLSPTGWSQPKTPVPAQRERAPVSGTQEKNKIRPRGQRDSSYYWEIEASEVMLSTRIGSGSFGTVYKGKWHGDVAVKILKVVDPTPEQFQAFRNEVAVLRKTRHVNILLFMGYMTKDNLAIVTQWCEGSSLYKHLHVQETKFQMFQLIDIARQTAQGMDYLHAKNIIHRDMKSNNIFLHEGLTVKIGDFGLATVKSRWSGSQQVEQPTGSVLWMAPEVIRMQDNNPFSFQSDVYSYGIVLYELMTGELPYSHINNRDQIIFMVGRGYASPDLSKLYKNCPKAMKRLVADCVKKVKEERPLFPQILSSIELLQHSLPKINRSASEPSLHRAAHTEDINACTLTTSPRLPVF
T3 sequence (Q16539 whole entry): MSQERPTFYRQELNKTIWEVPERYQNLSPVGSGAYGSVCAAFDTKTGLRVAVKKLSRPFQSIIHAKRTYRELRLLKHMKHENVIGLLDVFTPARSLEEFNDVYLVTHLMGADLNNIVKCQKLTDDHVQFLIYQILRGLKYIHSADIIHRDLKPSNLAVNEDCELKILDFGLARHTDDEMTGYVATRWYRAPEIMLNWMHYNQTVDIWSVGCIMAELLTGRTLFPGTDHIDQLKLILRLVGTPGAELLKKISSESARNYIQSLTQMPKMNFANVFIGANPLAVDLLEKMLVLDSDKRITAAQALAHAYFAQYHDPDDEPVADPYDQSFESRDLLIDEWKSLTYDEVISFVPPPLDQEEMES
T2 sequence (P15056 whole entry): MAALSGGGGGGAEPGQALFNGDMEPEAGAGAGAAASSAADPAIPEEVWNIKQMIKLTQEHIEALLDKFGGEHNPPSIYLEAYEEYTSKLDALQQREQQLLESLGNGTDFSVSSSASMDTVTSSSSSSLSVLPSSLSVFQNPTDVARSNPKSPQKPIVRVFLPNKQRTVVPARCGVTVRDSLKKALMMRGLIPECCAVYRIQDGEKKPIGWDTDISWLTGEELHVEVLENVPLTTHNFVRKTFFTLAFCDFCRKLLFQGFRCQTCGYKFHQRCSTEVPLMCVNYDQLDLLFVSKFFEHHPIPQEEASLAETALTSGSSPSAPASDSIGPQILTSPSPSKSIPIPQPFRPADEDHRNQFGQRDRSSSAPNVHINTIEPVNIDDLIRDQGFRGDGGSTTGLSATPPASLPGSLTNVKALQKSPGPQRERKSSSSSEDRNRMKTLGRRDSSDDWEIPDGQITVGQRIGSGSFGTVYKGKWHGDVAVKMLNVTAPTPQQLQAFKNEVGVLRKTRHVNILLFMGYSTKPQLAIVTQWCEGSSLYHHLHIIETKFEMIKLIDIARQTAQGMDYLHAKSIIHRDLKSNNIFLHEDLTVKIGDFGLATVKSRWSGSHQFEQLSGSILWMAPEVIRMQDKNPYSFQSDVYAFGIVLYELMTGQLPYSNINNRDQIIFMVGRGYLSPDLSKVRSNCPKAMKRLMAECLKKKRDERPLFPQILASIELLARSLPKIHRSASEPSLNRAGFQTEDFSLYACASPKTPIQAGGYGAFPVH
Sequence of Macrophage-stimulating protein receptor (Homo sapiens) (Q04912 25-304 limits assumed): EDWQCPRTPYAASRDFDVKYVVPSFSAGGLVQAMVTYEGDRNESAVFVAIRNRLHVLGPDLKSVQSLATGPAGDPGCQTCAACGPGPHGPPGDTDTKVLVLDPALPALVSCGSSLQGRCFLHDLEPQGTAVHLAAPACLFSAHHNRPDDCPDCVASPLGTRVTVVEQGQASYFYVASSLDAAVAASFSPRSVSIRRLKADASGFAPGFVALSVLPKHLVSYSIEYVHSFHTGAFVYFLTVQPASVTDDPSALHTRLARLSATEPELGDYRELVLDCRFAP
Sequence of Macrophage-stimulating protein receptor (Homo sapiens) (Q04912 310-1400 limits assumed): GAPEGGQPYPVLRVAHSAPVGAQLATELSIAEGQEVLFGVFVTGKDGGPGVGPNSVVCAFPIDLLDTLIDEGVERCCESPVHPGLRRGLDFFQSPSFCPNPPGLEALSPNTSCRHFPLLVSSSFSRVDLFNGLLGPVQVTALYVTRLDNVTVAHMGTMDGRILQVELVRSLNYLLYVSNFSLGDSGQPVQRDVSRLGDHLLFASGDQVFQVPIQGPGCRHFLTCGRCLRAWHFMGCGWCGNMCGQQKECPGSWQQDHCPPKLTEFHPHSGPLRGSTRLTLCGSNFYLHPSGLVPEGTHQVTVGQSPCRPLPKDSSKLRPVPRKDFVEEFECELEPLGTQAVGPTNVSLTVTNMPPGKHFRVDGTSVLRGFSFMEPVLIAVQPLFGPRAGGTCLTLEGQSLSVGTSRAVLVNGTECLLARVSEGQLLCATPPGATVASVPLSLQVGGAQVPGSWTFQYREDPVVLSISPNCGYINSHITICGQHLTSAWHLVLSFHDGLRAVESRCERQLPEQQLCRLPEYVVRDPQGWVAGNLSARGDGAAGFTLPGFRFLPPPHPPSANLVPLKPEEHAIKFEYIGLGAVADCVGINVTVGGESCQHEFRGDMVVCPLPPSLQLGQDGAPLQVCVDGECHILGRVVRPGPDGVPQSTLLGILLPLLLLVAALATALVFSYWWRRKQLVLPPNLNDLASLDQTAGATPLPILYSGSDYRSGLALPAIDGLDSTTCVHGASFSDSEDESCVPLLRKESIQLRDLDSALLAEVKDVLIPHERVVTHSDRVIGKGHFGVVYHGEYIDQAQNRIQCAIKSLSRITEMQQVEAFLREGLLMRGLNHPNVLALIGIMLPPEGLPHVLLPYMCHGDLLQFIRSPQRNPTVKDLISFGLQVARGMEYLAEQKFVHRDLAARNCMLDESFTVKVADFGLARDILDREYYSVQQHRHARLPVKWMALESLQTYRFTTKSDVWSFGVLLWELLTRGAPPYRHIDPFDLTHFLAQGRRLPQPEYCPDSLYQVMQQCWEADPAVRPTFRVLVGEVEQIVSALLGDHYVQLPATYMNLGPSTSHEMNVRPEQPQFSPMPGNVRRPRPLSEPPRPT
Sequence of Epidermal growth factor receptor (Homo sapiens) (P00533 whole entry): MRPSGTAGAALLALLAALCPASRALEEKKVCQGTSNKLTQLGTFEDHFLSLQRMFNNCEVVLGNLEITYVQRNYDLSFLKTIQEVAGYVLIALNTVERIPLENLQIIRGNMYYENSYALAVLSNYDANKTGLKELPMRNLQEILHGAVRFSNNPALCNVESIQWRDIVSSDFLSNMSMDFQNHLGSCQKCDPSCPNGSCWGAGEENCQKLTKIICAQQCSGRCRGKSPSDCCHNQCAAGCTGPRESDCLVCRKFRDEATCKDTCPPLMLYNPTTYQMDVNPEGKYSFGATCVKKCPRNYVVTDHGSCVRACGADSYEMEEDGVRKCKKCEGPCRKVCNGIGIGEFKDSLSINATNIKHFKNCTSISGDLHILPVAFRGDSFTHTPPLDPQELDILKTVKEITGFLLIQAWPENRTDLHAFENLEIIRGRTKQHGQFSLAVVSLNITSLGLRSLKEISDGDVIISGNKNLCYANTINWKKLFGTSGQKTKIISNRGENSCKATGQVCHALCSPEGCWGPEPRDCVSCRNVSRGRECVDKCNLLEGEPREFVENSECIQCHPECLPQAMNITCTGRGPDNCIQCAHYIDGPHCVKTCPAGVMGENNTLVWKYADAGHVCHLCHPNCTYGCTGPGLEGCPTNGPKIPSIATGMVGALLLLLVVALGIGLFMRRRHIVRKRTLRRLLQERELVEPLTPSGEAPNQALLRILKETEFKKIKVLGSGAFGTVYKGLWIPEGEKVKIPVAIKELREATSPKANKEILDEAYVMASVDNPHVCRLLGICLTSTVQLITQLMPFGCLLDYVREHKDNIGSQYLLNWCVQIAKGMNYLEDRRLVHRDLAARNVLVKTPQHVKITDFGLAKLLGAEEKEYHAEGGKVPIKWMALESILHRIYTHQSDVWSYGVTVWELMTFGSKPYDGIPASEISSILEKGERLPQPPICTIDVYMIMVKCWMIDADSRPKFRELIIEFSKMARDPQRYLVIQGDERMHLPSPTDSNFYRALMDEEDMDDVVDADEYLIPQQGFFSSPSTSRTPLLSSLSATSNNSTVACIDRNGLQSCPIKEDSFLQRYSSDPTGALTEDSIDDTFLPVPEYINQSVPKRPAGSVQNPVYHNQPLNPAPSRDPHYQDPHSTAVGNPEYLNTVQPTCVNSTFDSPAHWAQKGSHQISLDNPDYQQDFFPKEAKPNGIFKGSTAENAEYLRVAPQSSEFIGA
Sequence of Aurora kinase A (Homo sapiens) (O14965 whole entry): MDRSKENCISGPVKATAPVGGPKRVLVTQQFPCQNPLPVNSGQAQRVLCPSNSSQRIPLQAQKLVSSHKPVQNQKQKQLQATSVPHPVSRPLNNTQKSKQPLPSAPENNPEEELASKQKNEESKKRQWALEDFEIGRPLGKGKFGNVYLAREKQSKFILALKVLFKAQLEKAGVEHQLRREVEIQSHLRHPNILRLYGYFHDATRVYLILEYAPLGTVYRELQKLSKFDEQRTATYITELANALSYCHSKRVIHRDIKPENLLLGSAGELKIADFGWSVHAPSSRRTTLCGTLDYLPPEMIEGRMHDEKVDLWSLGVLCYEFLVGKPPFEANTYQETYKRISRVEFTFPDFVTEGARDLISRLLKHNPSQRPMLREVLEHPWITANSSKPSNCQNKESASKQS
Sequence of Serine/threonine-protein kinase B-raf (Homo sapiens), P15056 [V600E] (P15056 whole entry V600E): as the sequence (P15056 whole entry) above, with V600E counted along it

CNC(=O)c1cc(Oc2ccc(NC(=O)Nc3ccc(Cl)c(C(F)(F)F)c3)cc2)ccn1 [SORAFENIB]
GI50 [1]: 2.74 µM
GI50 [2]: 3.4 µM

C[C@H](O)CNc1nccc(-n2ccnc2Cc2cccc(NC(=O)c3ccccc3Sc3ccccc3C#N)c2)n1
GI50 [1]: 10 µM
GI50 (A375P): inactive

C[C@H](O)CNc1nccc(-n2ccnc2C(=O)c2cccc(NC(=O)Nc3ccc(Cl)cc3)c2)n1
GI50 [1]: > 30 µM
GI50 [2]: > 30 µM

C[C@H](O)CNc1nccc(-n2ccnc2Cc2cccc(NC(=O)c3ccc4ccccc4n3)c2)n1
GI50 [1]: 23.8 µM
GI50 (A375P): inactive

CCN1CCN(Cc2ccc(NC(=O)Nc3cccc(Cc4nccn4-c4ccnc(NC[C@H](C)O)n4)c3)cc2C(F)(F)F)CC1
GI50 [1]: > 30 µM
GI50 [2]: > 30 µM

CC(=O)N1CCC(C(=O)Nc2cccc(Cc3nccn3-c3ccnc(NC[C@H](C)O)n3)c2)CC1
GI50 (U-937): inactive
GI50 (A375P): inactive

C[C@H](O)CNc1nccc(-n2ccnc2C(=O)c2cccc(NC(=O)c3cc(N4CCOCC4)cc(C(F)(F)F)c3)c2)n1
GI50 [1]: 4.9 µM
GI50 (A375P): inactive

C[C@H](O)CNc1nccc(-n2ccnc2Cc2cccc(NC(=O)c3ccc(Cl)cc3)c2)n1
GI50 [1]: > 30 µM
GI50 [2]: 10.2 µM

C[C@H](O)CNc1nccc(-n2ccnc2C(=O)c2cccc(NC(=O)c3cc(N4CCN(C)CC4)cc(C(F)(F)F)c3)c2)n1
GI50 (U-937): inactive
GI50 [2]: 27.8 µM

C[C@H](O)CNc1nccc(-n2ccnc2C(=O)c2cccc(NC(=O)c3cccc(C(F)(F)F)c3)c2)n1
GI50 [1]: 3.78 µM
GI50 [2]: > 30 µM

C[C@H](O)CNc1nccc(-n2ccnc2Cc2cccc(NC(=O)C(c3ccc(Cl)cc3)c3ccc(Cl)cc3)c2)n1
GI50 [1]: 3.24 µM
GI50 [2]: 3.97 µM

C[C@H](O)CNc1nccc(-n2ccnc2C(=O)c2ccc(NC(=O)c3cccc(Cl)c3)cc2)n1
GI50 [1]: > 30 µM
GI50 [2]: > 30 µM

C[C@H](O)CNc1nccc(-n2ccnc2Cc2cccc(NC(=O)c3cnccn3)c2)n1
GI50 [1]: > 30 µM
GI50 (A375P): inactive

C[C@H](O)CNc1nccc(-n2ccnc2Cc2cccc(NC(=O)c3cc(N4CCN(C)CC4)cc(C(F)(F)F)c3)c2)n1
GI50 [1]: > 30 µM
GI50 [2]: 12.3 µM

C[C@H](O)CNc1nccc(-n2ccnc2C(=O)c2ccc(NC(=O)c3ccc(Cl)c(C(F)(F)F)c3)cc2)n1
GI50 [1]: > 30 µM
GI50 [2]: > 30 µM

C[C@H](O)CNc1nccc(-n2ccnc2Cc2cccc(NC(=O)Nc3ccc(Cl)c(C(F)(F)F)c3)c2)n1
inhibition [3]: 0%
inhibition [4]: 33.6%
IC50 [5]: 8.79 nM
inhibition [6]: 9.9%
GI50 [1]: 2.73 µM
inhibition [7]: 17.6%
inhibition [8]: 0%
inhibition [9]: 17.6%
inhibition [10]: 12.9%
inhibition [11]: 2.1%
IC50 [12]: 186 nM
inhibition [13]: 5.8%
IC50 [14]: 38.3 nM
inhibition [15]: 0%
inhibition [16]: 0%
inhibition [17]: 3.5%
inhibition [18]: 0%
inhibition [19]: 68.4%
inhibition [20]: 0%
inhibition [21]: 0.73%
inhibition [22]: 98.7%
inhibition [23]: 99.9%
inhibition [24]: 0%
inhibition [25]: 0%
inhibition [26]: 34.5%
inhibition [27]: 1.2%
inhibition [28]: 0%
GI50 [2]: 1.82 µM
inhibition [29]: 63.8%
IC50 [30]: 571 nM
inhibition [31]: 34.8%
inhibition (Homo sapiens): 0%
inhibition [32]: 4.9%
inhibition [33]: 96.1%
inhibition [34]: 6.9%
inhibition [35]: 94.3%
inhibition [36]: 0.42%
inhibition [37]: 8.1%

C[C@H](O)CNc1nccc(-n2ccnc2Cc2cccc(NC(=O)C3Cc4ccccc4N3)c2)n1 (stereo partly specified)
GI50 [1]: 18.5 µM
GI50 [2]: > 30 µM

C[C@H](O)CNc1nccc(-n2ccnc2Cc2cccc(NC(=O)c3cnn(-c4ccccc4)c3C(F)(F)F)c2)n1
GI50 [1]: 25.8 µM
GI50 [2]: 6.39 µM

C[C@H](O)CNc1nccc(-n2ccnc2Cc2cccc(NC(=O)c3ccc(Cl)c(C(F)(F)F)c3)c2)n1
GI50 [1]: 6.83 µM
GI50 [2]: 3.3 µM

Cc1c(C)c2c(c(C)c1O)CC[C@](C)(C(=O)Nc1cccc(Cc3nccn3-c3ccnc(NC[C@H](C)O)n3)c1)O2
GI50 [1]: 23.6 µM
GI50 (A375P): inactive
